# Strand notation (5' to 3'): a small letter for the sugar, then the base; units joined by * are phosphorothioate-linked, units joined directly phosphodiester-linked; [ ] holds rarer units or linkages, { } end groups; capitals alone tell only the bases. e = 2'-O-(2-methoxyethyl) (MOE); [5mC] = 5-methylcytosine; d = 2'-deoxy (DNA)
# How the values were obtained:
# rat JNK2 mRNA = assay: Northern assay of rat JNK2 (p54a) mRNA in A10 aortic smooth muscle cells; assay type: cell-based; design: inhibition of rat JNK2 mRNA levels / % INHIBITION: concentration or dose not given beside the values; conditions: for % INHIBITION / % EXPRESSION: rat JNK2 (p54a) mRNA in A10 cells; for % EXPRESSION: relative to LIPOFECTIN-only control
# Procedure: In order to study the role of JNK proteins in animal models, oligonucleotides targeted to the genes encoding JNK1, JNK2 and JNK3 of Rattus norvegicus were prepared. These oligonucleotides are 2′-methoxyethoxy, phosphodiester/2′-hydroxyl, phosphorothioate/2′-methoxyethoxy, phosphodiester “gapmers” in which every cytosine residue is 5-methylcytosine (m5c). These antisense compounds were synthesized according to the methods of the disclosure. Certain of these oligonucleotides are additionally specifically hybridizable to JNK genes from other species as indicated herein. The oligonucleotides described in this Example were tested for their ability to modulate rat JNK mRNA levels essentially according to the methods described in the preceding Examples, with the exceptions that the cell line used was rat A10 aortic smooth muscle cells (ATCC No. ATCC CRL-1476) and the probes used were specific for rat JNK1, JNK2 or JNK3 (see infra). A10 cells were grown and treated with oligonucleotides essentially as described by (Cioffi et al. Mol. Pharmacol., 1997, 51, 383).
# These antisense compounds were tested for their ability to modulate levels of p54? (JNK1) and p54a (JNK2) mRNA in A10 cells via Northern assays. Due to the high degree of sequence identity between the human and rat genes, radiolabeled human JNK1 (Example 3) and JNK2 (Example 4) cDNAs functioned as specific probes for the rat homologs.
# These antisense compounds were tested for their ability to modulate levels of p54a (JNK2) mRNA in A10 cells using the radiolabeled human JNK2 cDNA as a probe as described supra. Oligonucleotides showing levels of inhibition from ≧ about 60% to about 100% of rat JNK2 mRNA levels include ISIS Nos. 18254, 18255, 18257, 18258, 18259, 18260 and 18265 (SEQ ID NOS: 125, 126, 128, 129, 130, 131 and 136, respectively). These oligonucleotides are preferred embodiments of the invention for modulating rat JNK2 expression. […] These oligonucleotides are thus more preferred embodiments of the invention for modulating rat JNK2 expression. ISIS 18259 (SEQ ID NO: 130) was chosen for use in further studies (infra).
# JNK2 mRNA = assay: Northern assay of JNK2 mRNA expression in A549 cells; assay type: cell-based, human; conditions: for Normalized % Control: JNK2 mRNA dose response; for % EXPRESSION: relative to LIPOFECTIN-only control
# Procedure: In order to evaluate the activity of potential JNK-modulating oligonucleotides, human lung carcinoma cell line A549 (American Type Culture Collection, Rockville, Md. No. ATCC CCL-185) cells or other cell lines as indicated in the Examples, were grown and treated with oligonucleotides or control solutions as detailed below. After harvesting, cellular extracts were prepared and examined for specific JNK mRNA levels or JNK protein levels (i.e., Northern or Western assays, respectively). In all cases, “% expression” refers to the amount of JNK-specific signal in an oligonucleotide-treated cell relative to an untreated cell (or a cell treated with a control solution that lacks oligonucleotide), and “% inhibition” is calculated as
# 100%−% Expression =% Inhibition.
# Northern Assays: The mRNA expression of each JNK protein was determined by using a nucleic acid probe specifically hybridizable thereto. Nucleic acid probes specific for JNK1, JNK2 and JNK3 are described in Examples 3, 4 and 5, respectively. The probes were radiolabelled by means well known in the art (see, e.g., Short Protocols in Molecular Biology, 2nd Ed., Ausubel et al., Eds., John Wiley & Sons, New York, 1992, pages 3-11 to 2-3-44 and 4-17 to 4-18; Ruth, Chapter 6 In: Methods in Molecular Biology, Vol. 26: Protocols for Oligonucleotide Conjugates, Agrawal, ed., Humana Press Inc., Totowa, N.J., 1994, pages 167-185; and Chapter 10 In: Molecular Cloning: A Laboratory Manual, 2nd Ed., Sambrook et al., Eds., pages 10.1-10.70). The blots were stripped and reprobed with a ^32P-labeled glyceraldehyde 3-phosphate dehydrogenase (G3PDH) probe (Clontech Laboratories, Inc., Palo Alto, Calif.) in order to confirm equal loading of RNA and to allow the levels of JNK transcripts to be normalized with regard to the G3PDH signals.
# A549 cells were grown in T-75 flasks until 80-90% confluent. At this time, the cells were washed twice with 10 mL of media (DMEM), followed by the addition of 5 mL of DMEM containing 20 μg/mL of LIPOFECTIN™ (i.e., 1:1 (w/w) DOTMA/DOPE, Life Technologies, Gaithersburg, Md.; DOTMA=N-[1-(2,3-dioleyoxy)propyl]-N,N,N-trimethylammonium chloride; DOPE=dioleoyl phosphatidylethanolamine). The oligonucleotides were added from a 10 μM stock solution to a final concentration of 400 nM, and the two solutions were mixed by swirling the flasks. As a control, cells were treated with LIPOFECTIN™ without oligonucleotide under the same conditions and for the same times as the oligonucleotide-treated samples. After 4 hours at 37° C., the medium was replaced with fresh DMEM containing 10% serum. The cells were allowed to recover for 18 hours. Total cellular RNA was then extracted in guanidinium, subject to gel electrophoresis and transferred to a filter according to techniques known in the art (see, e.g., Chapter 7 In: Molecular Cloning: A Laboratory Manual, 2nd Ed., Sambrook et al., Eds., pages 7.1-7.87, and Short Protocols in Molecular Biology, 2nd Ed., Ausubel et al., Eds., John Wiley & Sons, New York, 1992, pages 2-24 to 2-30 and 4-14 to 4-29). Filters were typically hybridized overnight to a probe specific for the particular JNK gene of interest in hybridization buffer (25 mM KPO4, pH 7.4; 5×SSC; 5× Denhardt's solution, 100 μg/ml Salmon sperm DNA and 50% formamide) (Alahari et al., Nucl. Acids Res., 1993, 21, 4079). This was followed by two washes with 1×SSC, 0.1% SDS and two washes with 0.25×SSC, 0.1% SDS. Hybridizing bands were visualized by exposure to X-OMAT AR film and quantitated using a PHOSPHORIMAGER™ essentially according to the manufacturer's instructions (Molecular Dynamics, Sunnyvale, Calif.)
# B. JNK2-specific probes: In initial screenings of a set of oligonucleotides derived from the JNK2 sequence (Table 9) for biological activity, a cDNA clone of JNK2 (Kallunki et al., Genes & Development, 1994, 8, 2996) was radiolabeled and used as a JNK2-specific probe in Northern blots. […]
# [1] = JNK2 mRNA, A549 cells, 400 nM oligonucleotide
substance,measurement,setting,value
18257 (antisense eGeAeTeAeT*d[5mC]*dA*dA*d[5mC]*dA*dT*dT*d[5mC]*dT*d[5mC]*e[5mC]eTeTeGeT) [compound 18257],inhibition of rat JNK2 mRNA levels,rat JNK2 mRNA; A10 cells (Table 22),≥ 60%
same,% INHIBITION,rat JNK2 mRNA,68%
same,% EXPRESSION,rat JNK2 mRNA,32%
18255 (antisense eTeGeTeGeG*dT*dG*dT*dG*dA*dA*d[5mC]*dA*d[5mC]*dA*eTeTeTeAeA) [compound 18255],% INHIBITION,rat JNK2 mRNA,79%
same,% EXPRESSION,rat JNK2 mRNA,21%
18254 (antisense eTe[5mC]eAeTeG*dA*dT*dG*dT*dA*dG*dT*dG*dT*d[5mC]*eAeTeAe[5mC]eA) [compound 18254],% INHIBITION,rat JNK2 mRNA,80%
same,% EXPRESSION,rat JNK2 mRNA,20%
18261 (antisense e[5mC]e[5mC]eAe[5mC]e[5mC]*dA*dG*d[5mC]*dT*d[5mC]*d[5mC]*d[5mC]*dA*dT*dG*eTeGe[5mC]eTe[5mC]) [compound 18261],% INHIBITION,rat JNK2 mRNA,53%
same,% EXPRESSION,rat JNK2 mRNA,47%
18262 (antisense e[5mC]eAeGeTeT*dA*d[5mC]*dA*d[5mC]*dA*dT*dG*dA*dT*d[5mC]*eTeGeTe[5mC]eA) [compound 18262],% INHIBITION,rat JNK2 mRNA,50%
same,% EXPRESSION,rat JNK2 mRNA,50%
18264 (DNA eAeGe[5mC]eAeG*dA*dG*dT*dG*dA*dA*dA*dT*dA*d[5mC]*eAeAe[5mC]eTeT; antisense) [compound 18264],% INHIBITION,rat JNK2 mRNA,52%
same,% EXPRESSION,rat JNK2 mRNA,48%
18267 (DNA eAeAeAeTeG*dG*dA*dA*dA*dA*dG*dG*dA*d[5mC]*dA*eGe[5mC]eAeGe[5mC]; antisense) [compound 18267],% INHIBITION,rat JNK2 mRNA,16%
same,% EXPRESSION,rat JNK2 mRNA,84%
"14318 (sense GACTTTGGCCTGGCCCGGAC; DNA, all phosphorothioate, methylation of C not given here) [compound 14318]",Normalized % Control,JNK2 mRNA; 50 nM,87.1%
same,Normalized % Control,JNK2 mRNA; 100 nM,89.8%
same,Normalized % Control,JNK2 mRNA; 200 nM,92.1%
same,Normalized % Control,JNK2 mRNA; 400 nM,99.6%
12570 (antisense dG*dG*dG*dC*dA*dA*dG*dT*dC*dC*dA*dA*dG*dC*dA*dA*dG*dC*dA*dT) [compound 12570],% EXPRESSION,JNK2 mRNA; [1],24%
12561 (antisense dC*dA*dG*dG*dA*dT*dG*dA*dC*dT*dT*dC*dG*dG*dG*dC*dG*dC*dC*dC) [compound 12561],% EXPRESSION,JNK2 mRNA; [1],60%
same,% INHIBITION,"JNK2 mRNA; JNK2 mRNA, A549 cells, 400 nM oligonucleotide, 100% - % expression",40%
12563 (antisense dA*dT*dG*dG*dG*dT*dG*dA*dC*dG*dC*dA*dG*dA*dG*dC*dT*dT*dC*dG) [compound 12563],% EXPRESSION,JNK2 mRNA; [1],22%
